Drawing on ChEMBL document CHEMBL1157447, “Discovery and biological evaluation of novel alpha-glucosidase inhibitors with in vivo antidiabetic effect” (2008), this text covers inhibition and Activity for five molecules.

One experiment has as its system Saccharomyces cerevisiae. Briefly: Inhibition of alpha glucosidase from baker's yeast at 50 uM.
Experiment [1] concerns Rattus norvegicus. The experiment can be described thus: Antidiabetic activity in po dosed Streptozotocin induced diabetic Sprague-Dawley rat assessed as decrease in serum glucose level after 60 mins. The experiment is classed as functional. The arrangement: concentration or dose not given beside the values.
In experiment [2] the test system is Rattus norvegicus. The experiment can be described thus: Antidiabetic activity in po dosed Streptozotocin induced diabetic Sprague-Dawley rat assessed as decrease in serum glucose level after 120 mins. Format: functional. More on the design: scale not given: the % may be the effect or the level left.

As usually defined, the inhibition is the relative decrease from the control value, in per cent. For `COc1ccc(N2C(=O)NC(=O)/C(=C\c3cccn3CCOc3cccc(C)c3)C2=O)cc1Cl`, the inhibition in the experiment with Saccharomyces cerevisiae turned out to be 88.7%. The Activity in the experiment with Rattus norvegicus [1] is recorded as 5%; with Rattus norvegicus [2], 23%.

Molecule `Cc1ccc(Nc2nc(N)nc(COc3cccc4cccnc34)n2)cc1` displayed an inhibition in the experiment with Saccharomyces cerevisiae of 78.9%. Also, the Activity in the experiment on Rattus norvegicus [1] is reported as 20%.

With `CCc1ccc(N2C(=O)NC(=O)/C(=C\c3cccn3CCOc3cccc(C)c3)C2=O)cc1`, the inhibition in the experiment on Saccharomyces cerevisiae turned out to be 86%. For the same molecule, the Activity in the experiment with Rattus norvegicus [1] came out at 20%.

As to `C[C@H]1O[C@H](O[C@H]2[C@H](O)[C@@H](O)[C@@H](OC3[C@@H](CO)OC(O)[C@H](O)[C@H]3O)O[C@@H]2CO)[C@H](O)[C@@H](O)[C@@H]1N[C@H]1C=C(CO)[C@@H](O)[C@H](O)[C@H]1O` (single isomer, unassigned), in the experiment on Saccharomyces cerevisiae, the inhibition was determined as 88.1%.

With `N#C/C(=C\Nc1cccc(F)c1)c1nc(-c2cc3ccccc3oc2=O)cs1`, the inhibition in the experiment with Saccharomyces cerevisiae was 75.2%. Moreover, the Activity in the experiment with Rattus norvegicus [1] is on record as 20%.
